According to US8969413B2:
Read-outs that look alike come from different tables or passages of the source.

Legend:
GABAB receptor = GABAB receptor (Rattus norvegicus, UniProt Q9Z0U4); details: 100 μM, rat brain cortical homogenate
Mice [1] = experiment: subcutaneous picrotoxin (scPIC); type: in vivo
Method: (§1) Bicuculline (Bic) and Picrotoxin (Pic) are chemoconvulsants that cause clonic seizures in a manner similar to Metrazol (see scMET test). […] Therefore, as much as possible it is useful to differentiate novel AEDs pharmacologically. […]. At a previously determined time of peak effect (TPE), the animals are given a subcutaneous injection of either of the noted chemo-convulsants using the convulsive dose (CD97—a dose of 2.7 or 2.5 mg/kg, for Bic and Pic, respectively). The experimental animals are placed in isolation cages to minimize possible crowding stresses (Swinyard et al., 1961) and observed for the next 30 minutes (for Bic) or 45 minutes (for Pic) for the presence or absence of a seizure. An episode of clonic spasms, approximately 3-5 seconds, of the fore and/or hindlimbs, jaws, or vibrissae is used as the experimental endpoint.

cortical neurons = experiment: [3H]GABA uptake in cultured cortical neurons; type: cell-based; details: Mus musculus, Cortical neurone; read-out: neuron uptake IC50
Method: Cortical neurons were cultured essentially as previously described by removing the neopallium of 15-day old NMRI embryos by dissection followed by mild trypsination. Hertz E, Yu A C H, Hertz L, Juurlink B H J and Schousboe A. Preparation of Primary Cultures of Mouse Cortical Neurons, in A Dissection and Tissue Culture Manual of the Nervous System (Shahar A, de Vellis J, Vernadakis A and Haber B eds) pp 183-186, Alan R. Liss, Inc., New York, 198. The neurons were cultured in 10% fetal calf serum and, after 48 h, cytosine arabinoside was added to a final concentration of 20 μM to prevent glial proliferation. Four cultures of stably transfected Human Embryonic Kidney (HEK)-293 cells expressing mGAT1-4 were prepared by the method previously reported. […] J Pharmacol Exp Ther. 2002, 302, 636-644 The stable cell lines are under the selection pressure of blasticidin-S at 5 μg/mL. Determinations of the IC50 values were conducted as described earlier. […] Radioactivity was measured using Microscint™ 20 scintillation fluid (PerkinElmer) and a Packard TopCount microplate scintillation counter.

cortical astrocytes = experiment: [3H]GABA uptake in cultured cortical astrocytes; type: cell-based; details: Mus musculus, Astrocyte
Method: (§2) Cortical astrocytes were cultured essentially as previously described. Hertz L, Juurlink B H J, Hertz E, Fosmark H and Schousboe A. Preparation of Primary Cultures of Mouse (Rat) Astrocytes, in A Dissection and Tissue Culture Manual of the Nervous System (Shahar A, de Vellis J, Vernadakis A and Haber B eds) pp 105-108, Alan R. Liss, Inc., New York, 1989 The neopallium was removed from new born NMRI mice (Taconic, Denmark) and passed through an 80 μm nylon sieve and cultured in modified Dulbecco's modified Eagle's medium with fetal calf serum. The calf serum was lowered from 20% to 10% over three weeks, and finally the astrocytes were allowed to differentiate using 0.25 mM dibutyryl cyclic AMP during the last week of growth.
Cortical neurons were cultured essentially as previously described by removing the neopallium of 15-day old NMRI embryos by dissection followed by mild trypsination. Hertz E, Yu A C H, Hertz L, Juurlink B H J and Schousboe A. Preparation of Primary Cultures of Mouse Cortical Neurons, in A Dissection and Tissue Culture Manual of the Nervous System (Shahar A, de Vellis J, Vernadakis A and Haber B eds) pp 183-186, Alan R. Liss, Inc., New York, 198. […] Radioactivity was measured using Microscint™ 20 scintillation fluid (PerkinElmer) and a Packard TopCount microplate scintillation counter.

Mice [2] = experiment: minimal clonic seizure (6 Hz) test; type: in vivo; details: Single IP drug dose, 3 seconds, corneal electrode; for ED50: Mus musculus, ip
Text: Some clinically useful AEDs are ineffective in the standard MES and scMET tests but still have anticonvulsant activities in vivo. In order to identify potential AEDs with this profile, compounds may be tested in the minimal clonic seizure (6 Hz or ‘psychomotor’) test (Barton et al., 2001). […] Test compounds are pre-administered to mice via i.p. injection. At varying times, individual mice (four per time point) are challenged with sufficient current delivered through corneal electrodes to elicit a psychomotor seizure in 97% of animals (32 mA for 3 s) (Toman et al., 1952). Untreated mice will display seizures characterized by a minimal clonic phase followed by stereotyped, automatistic behaviors described originally as being similar to the aura of human patients with partial seizures. Animals not displaying this behavior are considered protected. The test may be evaluated quantitatively by measuring the responses at varying doses at a determined time of peak effect (TPE). This test may also be conducted at 22 and 44 mA if requested by ASP staff.

Sprague-Dawley rats = details: for time spent in chamber, first printed value / time spent in chamber, second printed value: 1.0 mg/kg i.p.
Mice [3] = experiment: corneal kindling; type: in vivo
Text: Mice are kindled electrically with 3 sec stimulation, 8 mA, 60 Hz, and corneal electrodes to a criterion of 10 consecutive Stage 5 seizures (facial clonus and head nodding progressing to forelimb clonus, and finally rearing and falling accompanied by a generalized clonic seizure as described by Racine). Stage 5 is generally reached after twice daily stimulation for 8 days. With continued stimulation once a day, animals usually progress to a reproducible Stage 5 after 10-14 additional days. At least 72 hours after the mice have been kindled, the test substance is administered either i.p. or p.o. and, at the previously determined TPE, each animal is given the electrical stimulus indicated above. Following stimulation, the animals are observed for the presence or absence of the rearing and falling criteria of a Stage 5 seizure. Treated animals not displaying a Stage 3, 4, or 5 seizure are considered protected. The dose of the test substance is varied between the limits of 0 and 100% efficacy, and the ED50 (mean effective dose) and 95% confidence intervals calculated by probit analysis. Mean values and the S.E.M. are calculated for the length of clonus and seizure duration and p values are determined by the Student's t-test

Mice [4] = experiment: subcutaneous bicuculline (scBIC); type: in vivo; details: Single IP drug dose, 2.7 mg/kg BIC; from 10-200 mg/kg; inconclusive?
Method: as §1

[5] = system: GABA transporters in neurons, astrocytes, or mammalian cells recombinantly expressing human or mouse transporter subtypes; experiment: [3H]GABA uptake, all transporter systems; type: cell-based; details: 1 mM concentration
Method: tsA201 cells were cultured in GlutaMAX-I DMEM supplemented with 10% fetal bovine serum, penicillin (100 U/ml), and streptomycin (100 μg/ml) at 37° C. in a humidified atmosphere of 95% air and 5% CO2. […] J. Biol. Chem. 2007, 282, 19331-19341. […] Quantification was performed by using Microscint™ 20 scintillation fluid (PerkinElmer) and a Packard TopCount microplate scintillation counter.
as §2, with “The calf serum was lowered from 20% to 10% over three weeks, and finally the astrocytes were allowed to differentiate using 0.25 mM dibutyryl cyclic AMP during the last week of growth.” left out
Cortical neurons were cultured essentially as previously described by removing the neopallium of 15-day old NMRI embryos by dissection followed by mild trypsination. […] Radioactivity was measured using Microscint™ 20 scintillation fluid (PerkinElmer) and a Packard TopCount microplate scintillation counter.

[6] = cocaine/saline+compound pairings, cocaine 20 mg/kg
[7] = saline/Compound 2 (CPP-115) pairings

Chain of GABAB receptor (Q9Z0U4 17-960 limits assumed): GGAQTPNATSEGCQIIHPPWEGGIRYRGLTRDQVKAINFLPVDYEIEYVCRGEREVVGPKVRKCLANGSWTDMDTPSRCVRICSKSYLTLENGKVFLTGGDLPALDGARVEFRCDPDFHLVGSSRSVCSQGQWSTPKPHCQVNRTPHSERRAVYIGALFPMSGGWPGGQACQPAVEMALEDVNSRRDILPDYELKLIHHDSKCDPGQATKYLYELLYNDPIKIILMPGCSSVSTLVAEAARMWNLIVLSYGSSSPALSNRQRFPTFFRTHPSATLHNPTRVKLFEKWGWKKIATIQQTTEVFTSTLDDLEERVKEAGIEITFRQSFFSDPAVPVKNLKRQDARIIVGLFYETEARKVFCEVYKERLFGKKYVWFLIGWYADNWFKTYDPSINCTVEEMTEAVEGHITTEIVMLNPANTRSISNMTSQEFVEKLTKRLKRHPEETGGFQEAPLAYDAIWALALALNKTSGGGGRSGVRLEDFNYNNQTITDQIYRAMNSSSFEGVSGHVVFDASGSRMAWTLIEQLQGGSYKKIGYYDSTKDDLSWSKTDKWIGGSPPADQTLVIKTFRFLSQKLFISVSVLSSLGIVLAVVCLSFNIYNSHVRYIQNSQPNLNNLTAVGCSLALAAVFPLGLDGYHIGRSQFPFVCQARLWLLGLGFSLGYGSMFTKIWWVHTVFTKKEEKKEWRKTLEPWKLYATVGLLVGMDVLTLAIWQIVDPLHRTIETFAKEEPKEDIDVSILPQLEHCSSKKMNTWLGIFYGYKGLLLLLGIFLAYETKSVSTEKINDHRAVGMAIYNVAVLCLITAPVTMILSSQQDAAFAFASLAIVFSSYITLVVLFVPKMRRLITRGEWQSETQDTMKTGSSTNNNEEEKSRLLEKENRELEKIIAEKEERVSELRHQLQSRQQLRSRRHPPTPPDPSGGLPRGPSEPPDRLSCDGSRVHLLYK
Chain of GABAB receptor (O88871 41-940 partner): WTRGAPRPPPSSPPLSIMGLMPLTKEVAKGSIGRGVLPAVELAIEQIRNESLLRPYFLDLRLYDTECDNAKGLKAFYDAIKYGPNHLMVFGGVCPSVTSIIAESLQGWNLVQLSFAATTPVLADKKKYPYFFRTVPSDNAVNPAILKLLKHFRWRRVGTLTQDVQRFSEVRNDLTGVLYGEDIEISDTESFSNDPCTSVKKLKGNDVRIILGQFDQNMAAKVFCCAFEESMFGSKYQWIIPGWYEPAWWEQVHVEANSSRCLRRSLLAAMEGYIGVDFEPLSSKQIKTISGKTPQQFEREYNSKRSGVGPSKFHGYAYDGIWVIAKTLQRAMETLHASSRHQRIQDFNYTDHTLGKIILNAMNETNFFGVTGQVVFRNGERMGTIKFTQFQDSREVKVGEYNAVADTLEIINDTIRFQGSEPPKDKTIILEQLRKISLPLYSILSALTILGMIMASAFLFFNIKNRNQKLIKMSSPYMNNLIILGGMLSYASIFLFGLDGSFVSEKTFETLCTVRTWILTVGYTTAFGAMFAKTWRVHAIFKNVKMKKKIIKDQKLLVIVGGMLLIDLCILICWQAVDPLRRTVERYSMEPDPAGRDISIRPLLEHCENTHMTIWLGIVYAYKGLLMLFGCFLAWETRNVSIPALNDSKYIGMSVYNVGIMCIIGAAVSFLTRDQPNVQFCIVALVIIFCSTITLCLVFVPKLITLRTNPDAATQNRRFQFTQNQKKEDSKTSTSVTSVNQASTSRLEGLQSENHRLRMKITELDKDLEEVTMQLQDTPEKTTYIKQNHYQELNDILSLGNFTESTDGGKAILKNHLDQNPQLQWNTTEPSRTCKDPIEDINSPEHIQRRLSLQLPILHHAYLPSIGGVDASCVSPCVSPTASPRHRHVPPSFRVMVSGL

N[C@H]1C[C@@H](C(=O)O)CC1=C(F)F [CPP-115]
inhibition of radioligand binding at GABAB receptors (GABAB receptor): no inhibition of binding was observed
ED50 (Mice [1]; Mus musculus, ip, read-out: scPIC ED50): 60.7 mg/kg
scPIC TPE (Mice [1]; Single IP drug dose, 2.5 mg/kg PIC): TPE 2 hours
IC50 (cortical neurons): > 1000 µM
IC50 (cortical astrocytes): > 1000 µM
ED50 (Mice [2]; 32 mA): 5.2 mg/kg
ED50 (Mice [2]; 44 mA): 28.4 mg/kg
6 Hz TPE (Mice [2]; 32 mA): TPE 4 hours
6 Hz TPE (Mice [2]; 44 mA): TPE 4 hours
expression of cocaine-induced CPP (Sprague-Dawley rats; 1.0 mg/kg i.p. 2.5 h before test, cocaine 20 mg/kg, listed as 2): blocked the expression of cocaine-induced CPP
effect on cocaine-induced CPP relative to vigabatrin (Sprague-Dawley rats; 1.0 mg/kg versus vigabatrin 300 mg/kg): 300 times
time spent in chamber, first printed value (Sprague-Dawley rats; [6]): 7.9 ± 1.5 min
time spent in chamber, second printed value (Sprague-Dawley rats; [6]): 7.1 ± 1.9 min
time spent in chamber, first printed value (Sprague-Dawley rats; [7]): 8.1 ± 3.2 min
time spent in chamber, second printed value (Sprague-Dawley rats; [7]): 6.9 ± 3.9 min
inhibition of radioligand binding at GABAA receptors (GABAA receptor; 100 μM, rat brain cortical homogenate): no inhibition of binding was observed
IC50 (GABAA receptor; read-out: [3H]muscimol competition (GABAA receptor) IC50, 5 nM [3H]muscimol, 0 °C, 60 min): > 100 µM
Corn. Kind. TPE (Mice [3]; Single IP drug dose, primed @ 8 mA, 60 Hz, 3 secs, for 8 days): TPE 4 hours
ED50 (Mice [3]; ip, 192 h, read-out: Corn. Kind. ED50): 20.1 mg/kg
scBIC protected (Mice [4]): About 50% protected
inhibitory activity at GABA transporters [5]: no inhibitory activity
